This note sets out measurements from US8518942B2, “Caspase inhibitors and uses thereof” (Buck Institute for Research on Aging, priority 2008, dated 2013).

Holding throughout (assay type): biochemical
One experiment addresses T1, caspase-8 (Homo sapiens, UniProt Q14790).
T1 construct: gift: Guy Salvesen's laboratory, Burnham Institute (La Jolla, Calif.)
Description: Irreversible inhibitor kinetic assay (progress curve), caspase-8, substrate Ac-DEVD-AMC. To be noted: casp-8; duplicate, SD included. An excerpt: (§1) Caspases-3, -6, -7, -8, and -9 were provided by Guy Salvesen's laboratory at the Burnham Institute (La Jolla, Calif.). Caspase-1 was purchased from EMD Biosciences (San Diego, Calif.) and Caspase-2 was purchased from Biomol International (Plymouth Meeting, Pa.). Caspase substrates Ac-DEVD-AMC, Ac-VDVAD-AFC, and Ac-LEHD-AFC were purchased from EMD Biosciences (San Diego, Calif.) and Ac-VDVAD-AMC was purchased from Biomol International (Plymouth Meeting, Pa.). The proteolytic cleavage of N-acyl aminocoumarins by caspases was conducted in Dynatech Microfluor fluorescence 96-well microtiter plates, and readings were taken on a Molecular Devices Spectra Max Gemini XS instrument. The excitation wavelength was 370 nm and the emission wavelength was 455 nm for AMCA substrates, the excitation wavelength was 355 nm and the emission wavelength was 450 nm for peptidyl AMC substrates, and the excitation wavelength was 430 nm and the emission wavelength was 535 nm for peptidyl AFC substrates.
(§2) The kinact/Ki for inhibitors were determined under pseudo-first order conditions using the progress curve method (Eckici et al. (2006) J. Med. Chem., 49: 5728-5749; Bieth (1995) Meth. Enzymol., 248: 59-84). Assay wells contained a mixture of inhibitor and AMC or AFC substrate in buffer. Aliquots of caspase were added to each well to initiate the assay. Hydrolysis of the AMC or AFC substrate was monitored fluorometrically for 45 min. To determine the inhibition parameters, time points for which the control ([I]=0) was linear were used. For each inhibitor, a kobs was calculated for at least four different concentrations of inhibitors via a nonlinear regression of the data according to the equation P=(vi/kobs)[1−exp(−kobst) (where product formation=P, […], and the first-order rate constant=kobs). If kobs varied linearly with [I], then the association constant kass was determined by linear regression analysis using kobs=(kass[I])/(1+[S]/Km) where [S] is the concentration of the substrate. […] Inhibition was measured in duplicate and the average of is reported. […]

Another experiment concerns the target T2, caspase-7 (Homo sapiens, UniProt P55210).
T2 construct: gift: Guy Salvesen's laboratory, Burnham Institute (La Jolla, Calif.)
T2 sequence (P55210 24-198 limits assumed): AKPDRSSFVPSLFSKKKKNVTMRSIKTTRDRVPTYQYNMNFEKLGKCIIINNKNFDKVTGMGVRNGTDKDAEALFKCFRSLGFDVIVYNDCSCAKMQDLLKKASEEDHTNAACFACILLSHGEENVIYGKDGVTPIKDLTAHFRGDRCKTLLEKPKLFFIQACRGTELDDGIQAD
T2 sequence (P55210 207-303 limits assumed): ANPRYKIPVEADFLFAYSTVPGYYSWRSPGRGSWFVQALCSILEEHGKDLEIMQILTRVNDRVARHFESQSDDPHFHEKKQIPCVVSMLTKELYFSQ
Description: Irreversible inhibitor kinetic assay (progress curve), caspase-7, substrate Ac-DEVD-AMC. To be noted: casp-7; duplicate, SD included.
Description: as §1, §2

Experiment [1] concerns the target T3, caspase-2 (Homo sapiens, UniProt P42575).
T3 sequence (P42575 170-325 limits assumed): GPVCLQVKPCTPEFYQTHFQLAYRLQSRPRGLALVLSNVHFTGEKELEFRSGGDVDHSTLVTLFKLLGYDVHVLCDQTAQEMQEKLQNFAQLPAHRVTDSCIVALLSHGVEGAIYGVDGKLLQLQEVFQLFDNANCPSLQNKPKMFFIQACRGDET
T3 sequence (P42575 348-452 limits assumed): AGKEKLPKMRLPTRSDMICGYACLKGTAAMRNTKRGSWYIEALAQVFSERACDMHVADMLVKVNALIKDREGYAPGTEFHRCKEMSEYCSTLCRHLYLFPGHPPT
Briefly: Blots of full-length huntingtin (23Q & 148Q) treated with caspase-2 plus inhibitor. To be noted: for Inhibition of caspase-2 cleavage of full-length huntingtin (blot): 23Q & 148Q, at the higher concentration of 10 μM; for Caspase-2 cleavage of Htt: conclusion.

For experiment [2], the target named is T3, caspase-2. Description: Irreversible inhibitor kinetic assay (progress curve), caspase-2, substrate Ac-VDVAD-AMC. To be noted: casp-2; duplicate, SD included.
Description: as §1, §2

T1 sequence (Q14790 217-374 limits assumed): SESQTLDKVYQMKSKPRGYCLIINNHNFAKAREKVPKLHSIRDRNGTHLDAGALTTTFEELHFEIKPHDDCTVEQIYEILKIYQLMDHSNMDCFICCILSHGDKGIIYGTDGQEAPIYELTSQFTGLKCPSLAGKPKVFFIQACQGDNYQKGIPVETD
T1 sequence (Q14790 385-479 limits assumed): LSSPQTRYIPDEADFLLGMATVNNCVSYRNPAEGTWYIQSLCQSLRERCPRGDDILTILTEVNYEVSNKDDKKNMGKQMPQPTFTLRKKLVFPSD

Take `C[C@@](NS(=O)(=O)Cc1ccccc1)(c1cn([C@@H](CC(=O)O)C(=O)COc2c(F)c(F)cc(F)c2F)nn1)C1CCCCC1` [MJL-001i]: the kinact/Ki on caspase-8 is given as 82,850 ± 1,150 s^−1/M^−1. At caspase-7, the kinact/Ki was 27,700 ± 2,000 s^−1/M^−1. Further, at caspase-2 [1], the “Inhibition of caspase-2 cleavage of full-length huntingtin (blot)” value is “slight inhibition” and the “Caspase-2 cleavage of Htt” value is reported as “do not inhibit”. Also, the “kass (kinact/Ki, footnote a)” value at caspase-2 [2] was 33.0 ± 0.5 s^−1/M^−1.

In the case of `C[C@@](NC(=O)CCCC(=O)O)(c1cn([C@@H](CC(=O)O)C(=O)COc2c(F)c(F)cc(F)c2F)nn1)C1CCCCC1` [MJL-002i], the kinact/Ki was 30,650 ± 1,950 s^−1/M^−1 at caspase-8 and 57,250 ± 1,550 s^−1/M^−1 at caspase-7. Besides, on caspase-2 [1], the “Caspase-2 cleavage of Htt” value is on record as “do not inhibit”. Moreover, the “kass (kinact/Ki, footnote a)” value at caspase-2 [2] is 2.0 ± 0.1 s^−1/M^−1.

Consider `C[C@@](NC(=O)Cc1ccccc1)(c1cn([C@@H](CC(=O)O)C(=O)COc2c(F)c(F)cc(F)c2F)nn1)C1CCCCC1` [MJL-003i], for which, at caspase-8, the kinact/Ki is on record as 60,000 ± 2,800 s^−1/M^−1. Also, the kinact/Ki at caspase-7 was 34,200 ± 3,800 s^−1/M^−1. Also, on caspase-2 [1], the “Inhibition of caspase-2 cleavage of full-length huntingtin (blot)” value is reported as “slight inhibition” and the “Caspase-2 cleavage of Htt” value is “do not inhibit”. For the same compound, the “kass (kinact/Ki, footnote a)” value on caspase-2 [2] was 6.90 ± 0.3 s^−1/M^−1.
